We go through 30 compounds from patent publication US11623924B2, “Modulators of alpha-1 antitrypsin” (Vertex Pharmaceuticals Incorporated, priority 2018, dated 2023).

Usually EC50 stands for the concentration that produces a half-maximal response.

A value given as a limit tells only on which side of the number the result lay.

T1 sequence (P01009 25-418 E366K): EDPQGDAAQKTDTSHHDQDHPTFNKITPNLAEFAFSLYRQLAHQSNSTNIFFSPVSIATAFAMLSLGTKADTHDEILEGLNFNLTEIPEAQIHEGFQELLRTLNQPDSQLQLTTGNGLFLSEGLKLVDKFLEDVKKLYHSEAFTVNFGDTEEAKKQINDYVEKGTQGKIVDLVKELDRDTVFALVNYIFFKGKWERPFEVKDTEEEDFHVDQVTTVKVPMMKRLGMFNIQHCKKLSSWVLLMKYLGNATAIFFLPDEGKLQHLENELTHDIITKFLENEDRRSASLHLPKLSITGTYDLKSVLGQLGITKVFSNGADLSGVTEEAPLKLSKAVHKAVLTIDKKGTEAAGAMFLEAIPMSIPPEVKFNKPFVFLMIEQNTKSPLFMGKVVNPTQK

The test addresses T1, NL20 human bronchial epithelial cells expressing human Z-AAT (Homo sapiens, UniProt P01009, E366K).
T1 construct: expressed in transfected cells; host or cells: NL20 human bronchial epithelial cells (NL20-SI line, doxycycline added)
Put plainly: AAT Function Assay (MSD Assay NL20-SI Cell Line). It is filed as cell-based. The conditions noted are these: functionally active AAT (AAT-hNE complex) in supernatant of NL20 cells expressing human Z-AAT; read-out: NL20 Func. (EC50). The procedure:
A. AAT Function Assay (MSD Assay NL20-SI Cell Line)
Alpha-1 antitrypsin (AAT) is a SERPIN (serine protease inhibitor) that inactivates enzymes by binding to them covalently. This assay measured the amount of functionally active AAT in a sample in the presence of the disclosed compounds 1-215 by determining the ability of AAT to form an irreversible complex with human neutrophil Elastase (hNE). In practice, the sample (cell supernatant, blood sample, or other) was incubated with excess hNE to allow AAT-Elastase complex to be formed with all functional AAT in the sample. This complex was then captured to a microplate coated with an anti-AAT antibody. The complex captured to the plate was detected with a labeled anti-Elastase antibody and quantitated using a set of AAT standards spanning the concentration range present in the sample. Meso Scale Discovery (MSD) plate reader, Sulfo-tag labeling, and microplates were used to provide high sensitivity and wide dynamic range.
• 1. Harvest NL20 human bronchial epithelial cells expressing human Z-AAT in OptiMEM™ containing Pen/Strep (P/S) • 2. Seed at 16,000 cells/well in 30 μL (384 well plate) • 3. Centrifuge plates briefly up to speed (1200 rpm) and place into 37° C. incubator overnight Day 2: Compound Addition and Coating Plates with Capture Antibody Compound Addition: • 1. Dispense 40 μL of OptiMEM™ (P/S) with doxycycline (1:1000 stock=0.1 μM final) to each well of the compound plate using a multidrop Combi in hood • 2. Remove cell plate from incubator, flip/blot and take immediately to Bravo to transfer compounds • 3. Return plates to incubator overnight Coat MSD Plates • 1. Dilute capture antibody (Polyclonal Goat anti-AAT) to 5 μg/mL (1:200) in PBS (no BSA). • 2. Dispense 25 μL of diluted capture antibody into all wells of MSD 384-well High Bind plate using the Multidrop equipped with a standard cassette. • 3. Incubate overnight at 4° C. Prepare Blocker A (BSA) Solutions • 1. Prepare solution of 5% MSD Blocker A (BSA) following the manufacturer's instructions. • 2. Further dilute the 5% MSD Blocker A in PBS to 1% (Blocker A) as needed. Day 3: Run MSD Assay
Block Plates • 1. Wash plate 1× with 50 μL Wash buffer (PBS+0.5% Tween 20), and adds 35 μL 5% Block A buffer to block non-specific binding on washer dispenser • 2. Rotate plates on shaker for 1 hour at 600 rpm
Prepare M-AAT Standards • 1. Dilute M-AAT stock to 1.6 μg/mL in 1% BSA Blocker A (Stock in −70° C.); then prepare 12×1:2 serial dilutions in 1% Blocker A • 2. The top starting final concentration on MSD plate is 320 ng/mL. These dilutions correspond to a final concentration of 320, 160, 80, 40, 20, 10, 5, 2.5, 1.25, 0.625, 0.312, 0.156 ng/mL.
Dilution Plate • 1. Add 80 μL of 1% Assay buffer to all wells except columns 1/24 (standards) with Multidrop Combi • 2. Add diluted standards to columns 1 and 24 • 3. Centrifuge dilution plates 1200 rpm briefly
Cell Plate • 1. Aspirate columns which will have the standards from the cell plates in the hood using 16-pin aspirator
Prepare Human Neutrophil Elastase (hNE) • 1. Prepare 1 μg/mL Human Neutrophil Elastase by diluting in 1% Blocker A. • a. Small 100 μg vial—add 1 mL PBS (100 μg/mL) • i. This can then be diluted 1:100 in 1% Assay Buffer for a final 1 μg/mL concentration
MSD—Add hNE (20 μL/well) • 1. After the MSD plate has blocked for at least 1 hour, wash plate 1× with 50 μL Wash buffer (PBS+0.5% Tween 20) and then add 20 μL hNE to each well
Bravo—Cell Plate—Dilution Plate—MSD Plate
Using the Bravo aspirate 10 μL from the cell plate, transfer to the dilution plate (9-fold dilution)
• 1. Mix 25 μL 3×, then aspirate 5 μL, transfer to MSD plate (5-fold dilution) • 2. Mix 10 μL 3×. Total dilution is 45 fold. • 3. Shake plates at 600 rpm for 1.5 hours
Add Functional detection hNE antibody • 1. Wash plate 1× with wash buffer • 2. […]
For the compound `N#Cc1c2[nH]ncc2cc2c1c(C1CC3(CC(C(=O)O)C3)C1)c(C1CCOCC1)n2-c1ccc(F)c(F)c1` (stereo not drawn) [Compound 133, 6-[8-cyano-5-(3,4-difluorophenyl)-6-tetrahydropyran-4-yl-1H-pyrrolo[2,3-f]indazol-7-yl]spiro[3.3]heptane-2-carboxylic acid], the EC50 is under 1.16 µM.
Consider `O=C(O)[C@H]1C[C@@H](c2c(C3CCOCC3)n(-c3ccc(F)c(F)c3)c3cc4cn[nH]c4cc32)C1` [Compound 65], for which the EC50 is over 3 µM.
`CC(C)c1c(CCC(=O)O)c2nc3[nH]ncc3cc2n1-c1ccc(F)cc1` [Compound 203, 3-[10-(4-fluorophenyl)-11-isopropyl-2,4,5,10-tetrazatricyclo[7.3.0.03,7]dodeca-1,3(7),5,8,11-pentaen-12-yl]propanoic Acid]: the EC50 was over 3 µM.
As for `O=C(O)CCc1c(C2CCOCC2)n(-c2ccc(F)c(F)c2)c2cc3cn[nH]c3cc12` [Compound 64, 3-[5-(3,4-difluorophenyl)-6-tetrahydropyran-4-yl-1H-pyrrolo[2,3-f]indazol-7-yl]propanoic Acid], the concentration for a half-maximal effect (EC50) was over 3 µM.
On to `C=C(C)c1c(C23CC(C(=O)O)(C2)C3)c2cc3[nH]ncc3cc2n1-c1ccc(F)cc1` [Compound 208, 3-[5-(4-fluorophenyl)-6-isopropenyl-1H-pyrrolo[2,3-f]indazol-7-yl]bicyclo[1.1.1]pentane-1-carboxylic Acid], for which the EC50 is under 1.16 µM.
On to `Cc1cc(-n2c(C(C)C)cc3c(F)c4[nH]ncc4cc32)ccc1F` [Compound 50, 8-fluoro-5-(4-fluoro-3-methyl-phenyl)-6-isopropyl-1H-pyrrolo[2,3-f]indazole], for which the EC50 is over 3 µM.
Take `O=C(O)CCc1c(C2CNC2)n(-c2ccc(F)cc2)c2cc3cn[nH]c3cc12` [Compound 198, 3-[6-(azetidin-3-yl)-5-(4-fluorophenyl)-1H-pyrrolo[2,3-f]indazol-7-yl]propanoic Acid]: the 50% effective concentration (EC50) was over 3 µM.
In the case of `O=C(O)[C@H]1C[C@@H](c2c(C3CCOCC3)n(-c3ccc(F)cc3)c3cc4cn[nH]c4cc32)C1` [Compound 112] it was over 3 µM; in that of `N#Cc1n[nH]c2cc3c(C4CC5(CC(C(=O)O)C5)C4)c(C4CCOCC4)n(-c4ccc(F)c(F)c4)c3cc12` (stereo not drawn) [Compound 186, 6-[3-cyano-5-(3,4-difluorophenyl)-6-tetrahydropyran-4-yl-1H-pyrrolo[2,3-f]indazol-7-yl]spiro[3.3]heptane-2-carboxylic Acid], over 3 µM.
With `CC(C)c1c(CC2(C(=O)O)CC2)c2cc3[nH]ncc3cc2n1-c1ccc(F)cc1` [Compound 33, 1-[[5-(4-fluorophenyl)-6-isopropyl-1H-pyrrolo[2,3-f]indazol-7-yl]methyl]cyclopropanecarboxylic Acid] the figure was under 1.16 µM.
For the compound `O=C(O)CCc1c(C2CCOCC2)n(-c2ccc(F)cc2)c2cc3cn[nH]c3cc12` [Compound 107], the EC50 is over 3 µM.
With `CC(C)c1c(CCC(=O)O)c2cc3[nH]ncc3cc2n1-c1cccc(C(F)(F)F)c1` [Compound 40, 3-[6-isopropyl-5-[3-(trifluoromethyl)phenyl]-1H-pyrrolo[2,3-f]indazol-7-yl]propanoic Acid] the figure was over 3 µM; with `COCC(C)(C)c1c(CC2CCS(=O)(=O)CC2)c2cc3[nH]ncc3cc2n1-c1ccc(F)cc1` [Compound 182], 1.16 to 3 µM.
As to `COCC(C)(C)c1c(CCCNC(=O)OCc2ccccc2)c2cc3[nH]ncc3cc2n1-c1ccc(F)cc1` [Compound 181], the concentration for a half-maximal effect (EC50) was over 3 µM.
Take `CCNC(=O)c1c(C(C)C)n(-c2ccc(F)c(C)c2)c2cc3cn[nH]c3cc12` [Compound 6, N-ethyl-5-(4-fluoro-3-methyl-phenyl)-6-isopropyl-1H-pyrrolo[2,3-f]indazole-7-carboxamide]: the EC50 is over 3 µM.
For the compound `Cc1cc(-n2c(C(C)C)cc3cc4[nH]ncc4cc32)ccn1` [Compound 43, 6-isopropyl-5-(2-methyl-4-pyridyl)-1H-pyrrolo[2,3-f]indazole], the concentration giving a half-maximal response (EC50) was over 3 µM.
With `Cc1cc(-n2c(C3(C)COC3)c(S(C)(=O)=O)c3cc4[nH]ncc4cc32)ccc1F` [Compound 139, 5-(4-fluoro-3-methyl-phenyl)-6-(3-methyloxetan-3-yl)-7-methylsulfonyl-1H-pyrrolo[2,3-f]indazole] the figure was over 3 µM; with `Cc1cc(-n2c(C3CCOCC3)c([C@H]3C[C@@H](CC(=O)O)C3)c3cc4[nH]ncc4cc32)ccc1F` (single isomer, unassigned) [Compound 95], 1.16 to 3 µM; with `O=C(O)C1(Cc2c(C3CCOCC3)n(-c3ccc(F)cc3)c3cc4cn[nH]c4cc23)CC1` [Compound 111], 1.16 to 3 µM.
In the case of `N#CCCCc1c(C2CCOCC2)n(-c2ccc(F)cc2)c2cc3cn[nH]c3cc12` [Compound 148] it was 1.16 to 3 µM.
For `Cc1cc(-n2c(C3CCOCC3)c(CCCC(=O)O)c3cc4[nH]ncc4cc32)ccc1F` [Compound 88], the concentration for a half-maximal effect (EC50) fell in the range of 1.16 to 3 µM.
In the case of `COCC(C)(C)c1c(C2CC(C)(C(=O)O)C2)c2cc3[nH]ncc3cc2n1-c1ccc(F)cc1` (mixture of isomers) [Compound 176] it was under 1.16 µM.
With `O=C(O)[C@H]1C[C@@H](Cc2c(C3CCOCC3)n(-c3ccc(F)cc3)c3cc4cn[nH]c4cc23)C1` [Compound 117] the figure was 1.16 to 3 µM; with `O=C(O)[C@H]1CC[C@H](c2c(C3CCOCC3)n(-c3ccc(F)c(F)c3)c3cc4cn[nH]c4cc32)CC1` [Compound 75, (1r,4r)-4-(5-(3,4-difluorophenyl)-6-(tetrahydro-2H-pyran-4-yl)-1,5-dihydropyrrolo[2,3-f]indazol-7-yl)cyclohexane-1-carboxylic Acid], under 1.16 µM; with `CC(C)c1c(CCC(=O)O)c2c(F)c3[nH]ncc3cc2n1-c1ccc(F)cc1` [Compound 53, 3-[8-fluoro-5-(4-fluorophenyl)-6-isopropyl-1H-pyrrolo[2,3-f]indazol-7-yl]propanoic Acid], under 1.16 µM.
With `Cc1cc(-n2c(C(C)C)c(C3CC4(CC(C(=O)O)C4)C3)c3cc4[nH]ncc4cc32)ccc1F` (racemic) [Compound 24] the figure was under 1.16 µM.
Consider `[2H]C([2H])(C(=O)O)C([2H])([2H])c1c(C(C)C)n(-c2ccc(F)cc2)c2cc3cn[nH]c3cc12` [Compound 171, 2,2,3,3-tetradeuterio-3-[5-(4-fluorophenyl)-6-isopropyl-1H-pyrrolo[2,3-f]indazol-7-yl]propanoic Acid], for which the 50% effective concentration (EC50) is under 1.16 µM.
With `C=Cc1c(C(C)C)n(-c2ccc(F)c(C)c2)c2cc3cn[nH]c3cc12` [Compound 12, 5-(4-fluoro-3-methyl-phenyl)-6-isopropyl-7-vinyl-1H-pyrrolo[2,3-f]indazole] the figure was over 3 µM; with `Cc1cc(-n2c(C(C)C)c(C#N)c3cc4[nH]ncc4cc32)ccc1F` [Compound 10, 5-(4-fluoro-3-methyl-phenyl)-6-isopropyl-1H-pyrrolo[2,3-f]indazole-7-carbonitrile], over 3 µM; with `CCOC(=O)[C@@H]1C[C@@H]1c1c(C(C)C)n(-c2ccc(F)c(C)c2)c2cc3cn[nH]c3cc12` (racemic) [Compound 15, ethyl (1R,2S)-2-[5-(4-fluoro-3-methyl-phenyl)-6-isopropyl-1H-pyrrolo[2,3-f]indazol-7-yl]cyclopropanecarboxylate], over 3 µM.
